Reference: patent US10385065B2, “Antibacterial compounds” (priority 2014, dated 2019)
Values after ≈ are worked out from the molar mass of the structure shown. Read-outs that look alike come from different tables or passages of the source.

Columns and labels:
Format in all cases: cell-based
[1] = system: Staphylococcus aureus ATCC 29213; test: MIC, broth microdilution, S. aureus ATCC 29213
[2] = system: Escherichia coli ATCC 25922; test: MIC, broth microdilution, E. coli ATCC 25922; conditions: ATCC25922, Table 1, wild type strain
[3] = system: Enterococcus faecium ATCC 19434; test: MIC, E. faecium ATCC 19434; conditions: ATCC19434, Table 2
[4] = system: Haemophilus influenzae ATCC 49247; test: MIC, H. influenzae ATCC 49247; conditions: ATCC49247, Table 4
[5] = ATCC29213, Table 1, wild type strain, read-out: MIC S. aureus ATCC 29213
[6] = ATCC 29213 / MSSA, Table 2, read-out: MIC S. aureus (MSSA) ATCC 29213 CLSI control strain

Structure (SMILES) | MIC [1, 5] [µg/mL] | MIC [1, 6] [µg/mL] | MIC [2] [µg/mL] | MIC [3] [µg/mL] | MIC [4] [µg/mL]
Cc1c(-c2cc(F)c(N)cc2F)ccc2c3oc(=O)[nH]c3c(=O)n(C3CC3)c12 [Compound 3, 7-(4-amino-2,5-difluoro-phenyl)-5-cyclopropyl-6-methyl-3H-oxazolo[4,5-c]quinoline-2,4-dione] | 1 to 10 (≈ 2.61 to 26.1 µM) | 1 to 10 (≈ 2.61 to 26.1 µM) | > 100 | > 100 | 1 to 10 (≈ 2.61 to 26.1 µM)
Cc1c(-c2cnc(N)cn2)ccc2c3ocnc3c(=O)n(C3CC3)c12 [Compound 6, 7-(5-aminopyrazin-2-yl)-5-cyclopropyl-6-methyl-oxazolo[4,5-c]quinolin-4-one] | 10 to 100 (≈ 30 to 300 µM) | 10 to 100 (≈ 30 to 300 µM) | > 100 | > 100 | > 100
Cc1c(-c2ccccc2)ccc2c3ocnc3c(=O)n(C3CC3)c12 [Compound 7, 5-cyclopropyl-6-methyl-7-phenyl-oxazolo[4,5-c]quinolin-4-one] | 1 to 10 (≈ 3.16 to 31.6 µM) | 1 to 10 (≈ 3.16 to 31.6 µM) | > 100 | 10 to 100 (≈ 31.6 to 316 µM) | 10 to 100 (≈ 31.6 to 316 µM)
Cc1nc2c(=O)n(C3CC3)c3c(C)c(-c4cnn(C5CNC5)c4)ccc3c2o1 [Compound 12, 7-[1-(azetidin-3-yl)pyrazol-4-yl]-5-cyclopropyl-2,6-dimethyl-oxazolo[4,5-c]quinolin-4-one] | 1 to 10 (≈ 2.66 to 26.6 µM) | > 100 | 10 to 100 (≈ 26.6 to 266 µM) | > 100 | 1 to 10 (≈ 2.66 to 26.6 µM)
Cc1nc2c(=O)n(C3CC3)c3c(C)c(-c4ccc(N)c(F)c4)ccc3c2o1 [Compound 13] | < 1 | < 1 | > 100 | > 100 | > 100
Cc1nc2c(=O)n(C3CC3)c3c(C)c(-c4cnc(N)nc4)ccc3c2o1 [Compound 16, 7-(2-aminopyrimidin-5-yl)-5-cyclopropyl-2,6-dimethyl-oxazolo[4,5-c]quinolin-4-one] | < 1 | 1 to 10 (≈ 2.88 to 28.8 µM) | 10 to 100 (≈ 28.8 to 288 µM) | 10 to 100 (≈ 28.8 to 288 µM) | 10 to 100 (≈ 28.8 to 288 µM)
Cc1nc2c(=O)n(C3CC3)c3c(C)c(-c4ccc(S(N)(=O)=O)cc4)ccc3c2o1 [Compound 17] | 1 to 10 (≈ 2.44 to 24.4 µM) | 1 to 10 (≈ 2.44 to 24.4 µM) | 1 to 10 (≈ 2.44 to 24.4 µM) | > 100 | < 1
Cc1nc2c(=O)n(C3CC3)c3c(C)c(-c4cc(F)c(O)cc4F)ccc3c2o1 [Compound 32, 5-cyclopropyl-7-(2,5-difluoro-4-hydroxy-phenyl)-2,6-dimethyl-oxazolo[4,5-c]quinolin-4-one] | < 1 | < 1 | 1 to 10 (≈ 2.62 to 26.2 µM) | 10 to 100 (≈ 26.2 to 262 µM) | 1 to 10 (≈ 2.62 to 26.2 µM)
Cc1nc2c(=O)n(C3CC3)c3c(C)c(-c4cnc(C(C)(C)O)nc4)ccc3c2o1 [Compound 37, 5-cyclopropyl-7-[2-(2-hydroxypropan-2-yl)pyrimidin-5-yl]-2,6-dimethyl-oxazolo[4,5-c]quinolin-4-one] | 10 to 100 (≈ 25.6 to 256 µM) | 10 to 100 (≈ 25.6 to 256 µM) | > 100 | > 100 | 10 to 100 (≈ 25.6 to 256 µM)
CC(=O)c1ccc(-c2ccc3c4ocnc4c(=O)n(C4CC4)c3c2C)nc1 [Compound 42, 7-(5-acetylpyridin-2-yl)-5-cyclopropyl-6-methyl-oxazolo[4,5-c]quinolin-4-one] | 10 to 100 (≈ 27.8 to 278 µM) | 10 to 100 (≈ 27.8 to 278 µM) | > 100 | > 100 | > 100
Cc1c(-c2cnoc2)ccc2c3ocnc3c(=O)n(C3CC3)c12 [Compound 43, 5-cyclopropyl-6-methyl-7-(1,2-oxazol-4-yl)-oxazolo[4,5-c]quinolin-4-one] | 1 to 10 (≈ 3.25 to 32.5 µM) | 1 to 10 (≈ 3.25 to 32.5 µM) | 10 to 100 (≈ 32.5 to 325 µM) | > 100 | 10 to 100 (≈ 32.5 to 325 µM)
Cc1c(-c2ccc3[nH]nnc3c2)ccc2c3ocnc3c(=O)n(C3CC3)c12 [Compound 44, 7-(1H-1,2,3-benzotriazol-5-yl)-5-cyclopropyl-6-methyl-oxazolo[4,5-c]quinolin-4-one] | > 100 | > 100 | > 100 | > 100 | > 100
Cc1c(-c2ccc(O)cn2)ccc2c3ocnc3c(=O)n(C3CC3)c12 [Compound 45, 5-cyclopropyl-7-(5-hydroxypyridin-2-yl)-6-methyl-oxazolo[4,5-c]quinolin-4-one] | 10 to 100 (≈ 30 to 300 µM) | 10 to 100 (≈ 30 to 300 µM) | > 100 | > 100 | 10 to 100 (≈ 30 to 300 µM)
Cc1c(-c2cc(F)c(C(=O)O)cc2F)ccc2c3ocnc3c(=O)n(C3CC3)c12 [Compound 47, 4-{5-cyclopropyl-6-methyl-4-oxo-oxazolo[4,5-c]quinolin-7-yl}-2,5-difluorobenzoic acid] | 10 to 100 (≈ 25.2 to 252 µM) | 10 to 100 (≈ 25.2 to 252 µM) | > 100 | > 100 | > 100
Cc1nc2c(=O)n(C3CC3)c3cc(N4CCCC(N)C4)c(F)cc3c2o1 (centres unmarked) [Compound 51, 7-(3-aminopiperidin-1-yl)-5-cyclopropyl-8-fluoro-2-methyl-oxazolo[4,5-c]quinolin-4-one] | 1 to 10 (≈ 2.81 to 28.1 µM) | 1 to 10 (≈ 2.81 to 28.1 µM) | 1 to 10 (≈ 2.81 to 28.1 µM) | 10 to 100 (≈ 28.1 to 281 µM) | 1 to 10 (≈ 2.81 to 28.1 µM)
Cc1nc2c(=O)n(C3CC3)c3cc(N4CCC(O)C4)c(F)cc3c2o1 (centres unmarked) [Compound 53, 5-cyclopropyl-8-fluoro-7-(3-hydroxypyrrolidin-1-yl)-2-methyl-oxazolo[4,5-c]quinolin-4-one] | 10 to 100 (≈ 29.1 to 291 µM) | 10 to 100 (≈ 29.1 to 291 µM) | 10 to 100 (≈ 29.1 to 291 µM) | > 100 | 1 to 10 (≈ 2.91 to 29.1 µM)
O=c1c2ncoc2c2cc(F)c(-c3ccncc3Cl)cc2n1C1CC1 [Compound 59, 7-(3-chloro-4-pyridyl)-5-cyclopropyl-8-fluoro-oxazolo[4,5-c]quinolin-4-one] | 1 to 10 (≈ 2.81 to 28.1 µM) | 1 to 10 (≈ 2.81 to 28.1 µM) | 10 to 100 (≈ 28.1 to 281 µM) | > 100 | 1 to 10 (≈ 2.81 to 28.1 µM)
O=c1c2ncoc2c2cc(F)c(-c3ccc(C(F)(F)F)nc3)cc2n1C1CC1 [Compound 60, 5-cyclopropyl-8-fluoro-7-[6-(trifluoromethyl)-3-pyridyl]oxazolo[4,5-c]quinolin-4-one] | 10 to 100 (≈ 25.7 to 257 µM) | 10 to 100 (≈ 25.7 to 257 µM) | > 100 | > 100 | 1 to 10 (≈ 2.57 to 25.7 µM)
CCOC(=O)c1ccc(-c2cc3c(cc2F)c2ocnc2c(=O)n3C2CC2)cc1 [Compound 61, ethyl 4-(5-cyclopropyl-8-fluoro-4-oxo-oxazolo[4,5-c]quinolin-7-yl)benzoate] | > 100 | > 100 | > 100 | > 100 | > 100
Nc1ncc(-c2cc3c(cc2F)c2ocnc2c(=O)n3C2CC2)cn1 [Compound 62, 7-(2-aminopyrimidin-5-yl)-5-cyclopropyl-8-fluoro-oxazolo[4,5-c]quinolin-4-one] | 1 to 10 (≈ 2.96 to 29.6 µM) | 1 to 10 (≈ 2.96 to 29.6 µM) | 10 to 100 (≈ 29.6 to 296 µM) | > 100 | 1 to 10 (≈ 2.96 to 29.6 µM)
COc1ccc(-c2cc3c(cc2F)c2ocnc2c(=O)n3C2CC2)cc1 [Compound 63, 5-cyclopropyl-8-fluoro-7-(4-methoxyphenyl)oxazolo[4,5-c]quinolin-4-one] | > 100 | > 100 | > 100 | > 100 | > 100
N#Cc1c(F)cc(-c2cc3c(cc2F)c2ocnc2c(=O)n3C2CC2)cc1F [Compound 65, 4-(5-cyclopropyl-8-fluoro-4-oxo-oxazolo[4,5-c]quinolin-7-yl)-2,6-difluoro-benzonitrile] | 1 to 10 (≈ 2.62 to 26.2 µM) | 1 to 10 (≈ 2.62 to 26.2 µM) | > 100 | > 100 | 10 to 100 (≈ 26.2 to 262 µM)
CN(C)C(=O)c1ccc(-c2cc3c(cc2F)c2ocnc2c(=O)n3C2CC2)cc1 [Compound 66, 4-(5-cyclopropyl-8-fluoro-4-oxo-oxazolo[4,5-c]quinolin-7-yl)-N,N-dimethyl-benzamide] | 1 to 10 (≈ 2.55 to 25.5 µM) | 1 to 10 (≈ 2.55 to 25.5 µM) | > 100 | > 100 | 10 to 100 (≈ 25.5 to 255 µM)
CNC(=O)c1ccc(-c2cc3c(cc2F)c2ocnc2c(=O)n3C2CC2)cc1F [Compound 67, 4-(5-cyclopropyl-8-fluoro-4-oxo-oxazolo[4,5-c]quinolin-7-yl)-2-fluoro-N-methyl-benzamide] | 1 to 10 (≈ 2.53 to 25.3 µM) | 1 to 10 (≈ 2.53 to 25.3 µM) | > 100 | > 100 | 10 to 100 (≈ 25.3 to 253 µM)
Cc1nc2c(=O)n(C3CC3)c3c(Cl)c(N4CCC(CN)C4)c(F)cc3c2o1 (centres unmarked) [Compound 110, 7-[3-(aminomethyl)pyrrolidin-1-yl]-6-chloro-5-cyclopropyl-8-fluoro-2-methyl-oxazolo[4,5-c]quinolin-4-one] | < 1 |  | < 1 |  | 
